The values below come from US20210300940A1 (Merck Patent GmbH, priority 2018, published 2021).

One assay addresses T1, TLR7 (Homo sapiens, UniProt Q9NYK1).
T1 construct: expressed in transfected cells; host or cells: HEK/293 cells carrying TLR7 and an NF-kB luciferase reporter
T1 sequence (Q9NYK1 27-1049): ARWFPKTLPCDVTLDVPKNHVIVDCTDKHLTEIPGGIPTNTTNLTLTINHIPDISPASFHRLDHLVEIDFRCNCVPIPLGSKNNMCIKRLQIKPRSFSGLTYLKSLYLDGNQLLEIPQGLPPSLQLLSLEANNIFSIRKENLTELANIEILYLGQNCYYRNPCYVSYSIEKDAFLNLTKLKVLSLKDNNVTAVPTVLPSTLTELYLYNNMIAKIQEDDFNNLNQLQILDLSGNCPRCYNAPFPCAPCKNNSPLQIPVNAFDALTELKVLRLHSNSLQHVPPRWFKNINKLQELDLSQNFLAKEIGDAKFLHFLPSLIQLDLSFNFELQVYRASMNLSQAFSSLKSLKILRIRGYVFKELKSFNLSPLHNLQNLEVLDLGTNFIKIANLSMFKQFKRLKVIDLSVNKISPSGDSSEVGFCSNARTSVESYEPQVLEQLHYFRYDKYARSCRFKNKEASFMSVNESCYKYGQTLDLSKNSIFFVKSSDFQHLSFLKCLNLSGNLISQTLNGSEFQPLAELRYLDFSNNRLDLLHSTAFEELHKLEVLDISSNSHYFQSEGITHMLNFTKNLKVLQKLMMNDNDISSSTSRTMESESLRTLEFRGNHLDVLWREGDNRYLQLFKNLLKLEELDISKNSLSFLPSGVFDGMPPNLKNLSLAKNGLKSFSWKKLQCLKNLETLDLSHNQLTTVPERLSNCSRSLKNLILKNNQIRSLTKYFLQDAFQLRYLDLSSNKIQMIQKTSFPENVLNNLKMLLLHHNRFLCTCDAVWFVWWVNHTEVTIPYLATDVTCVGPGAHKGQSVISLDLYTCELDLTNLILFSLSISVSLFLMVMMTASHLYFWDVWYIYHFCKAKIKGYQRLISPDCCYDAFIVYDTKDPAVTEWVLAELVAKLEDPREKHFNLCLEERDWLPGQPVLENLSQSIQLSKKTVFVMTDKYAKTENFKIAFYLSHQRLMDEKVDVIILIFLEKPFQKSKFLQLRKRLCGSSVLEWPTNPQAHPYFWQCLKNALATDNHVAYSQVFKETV
The experiment in a line: HEK/293 TLR7 Cell Assay. The assay is classed as cell-based. The note with it: TLR7/NFKb HEK cells, R848 agonist 10 uM final concentration, Steady-Glo readout; read-out: TLR7 potency. On the procedure: (§1) Example 389: HEK/293 TLR7 Cell Assay Into 384 CulturePlates (Corning 3765) was placed 5000 c/w of TLR7/NFKb HEK cells in 30 uL DMEM without Phenol red (gibco #31053-028) and 10% heat inactivated fetal bovine serum, 10% penicillin-streptomycin, and 2 mM L-Glutamine. The cells were incubated for 24 h at 37° C., 10% carbon dioxide and 90% relative humidity. 3 uL of controls, standards, and compounds were dispensed into wells, incubated for 30 min then 3 uL of R848 agonist (10 uM final concentration) was added in 20 mM Hepes. After incubation for 5 hours, they were allowed to stand at room temperature for 15 min. To this was added 10 uL of Steady-Glo substrate reagent and shake assay plate for 5 min at 1500 rpm. The assay plate was allowed to sit for 30 min at room temperature and then the plate was read on EnVision.

In a further assay the target is T2, TLR8 (Homo sapiens, UniProt Q9NR97).
T2 construct: expressed in transfected cells; host or cells: HEK/293 reporter cells (NF-kB luciferase)
T2 sequence (Q9NR97 27-1041): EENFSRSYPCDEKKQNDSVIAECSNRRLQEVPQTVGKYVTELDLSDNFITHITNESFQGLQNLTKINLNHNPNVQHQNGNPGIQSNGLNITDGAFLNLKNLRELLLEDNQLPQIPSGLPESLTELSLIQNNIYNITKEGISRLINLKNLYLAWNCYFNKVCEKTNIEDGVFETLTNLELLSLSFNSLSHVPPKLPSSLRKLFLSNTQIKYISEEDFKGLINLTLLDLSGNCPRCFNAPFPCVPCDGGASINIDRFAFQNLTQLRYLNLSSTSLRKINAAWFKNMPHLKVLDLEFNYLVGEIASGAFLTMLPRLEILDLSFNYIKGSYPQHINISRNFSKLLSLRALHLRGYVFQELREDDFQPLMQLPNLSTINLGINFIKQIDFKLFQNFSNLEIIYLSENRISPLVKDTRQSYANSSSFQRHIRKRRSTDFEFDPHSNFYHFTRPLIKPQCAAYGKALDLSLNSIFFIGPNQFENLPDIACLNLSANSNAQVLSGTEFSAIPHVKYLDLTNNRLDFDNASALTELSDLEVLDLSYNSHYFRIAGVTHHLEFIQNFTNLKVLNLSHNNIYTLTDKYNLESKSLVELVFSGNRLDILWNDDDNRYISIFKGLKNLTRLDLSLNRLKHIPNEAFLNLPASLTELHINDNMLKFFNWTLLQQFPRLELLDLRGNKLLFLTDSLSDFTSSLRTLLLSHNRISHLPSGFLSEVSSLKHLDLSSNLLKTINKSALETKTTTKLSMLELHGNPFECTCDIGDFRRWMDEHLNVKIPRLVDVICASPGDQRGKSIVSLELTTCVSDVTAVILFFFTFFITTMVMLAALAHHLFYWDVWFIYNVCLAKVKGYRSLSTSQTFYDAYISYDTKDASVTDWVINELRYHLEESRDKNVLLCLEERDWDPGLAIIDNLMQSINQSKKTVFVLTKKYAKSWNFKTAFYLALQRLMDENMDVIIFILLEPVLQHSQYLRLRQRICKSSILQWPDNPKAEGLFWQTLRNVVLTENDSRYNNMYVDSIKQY
The experiment in a line: HEK/293 TLR8 Cell Assay. The assay is classed as cell-based. The note with it: HEK cells, R848 agonist 30 uM final concentration, Steady-Glo readout; read-out: TLR8 potency. On the procedure: as §1, with “Example 390:” for “Example 389:”, “HEK/293 TLR8” for “HEK/293 TLR7”, “serum, 1%” for “serum, 10%”, “agonist (30” for “agonist (10”

Where only a bound is given, the exact number is not on record here.

Take `C[C@H]1C[C@@H](NC(=O)[C@@H](C)N2CCC(O)CC2)CN(c2ccc(C(F)(F)F)c3ncccc23)C1` (single isomer, unassigned) [Example 105]: the IC50 was more than 150 nM at TLR7 and less than 75 nM at TLR8.
On to `C[C@@H]1CN(c2cnc(C#N)c3ncccc23)C[C@H](C(=O)NC[C@H]2CCCN2C)O1` [Example 276, (2R,6R)-4-(8-Cyano-[1,7]naphthyridin-5-yl)-6-methyl-morpholine-2-carboxylic acid ((R)-1-methyl-pyrrolidin-2-ylmethyl)-amide], for which the IC50 on TLR7 was less than 75 nM; on TLR8, 75 to 150 nM.
For the compound `Cc1c(F)cc(N2C[C@@H](C)C[C@@H](NC(=O)NCCN(C)C)C2)c2cccnc12` [Example 145, 3-[2-(dimethylamino)ethyl]-1-[(3R,5S)-1-(7-fluoro-8-methylquinolin-5-yl)-5-methylpiperidin-3-yl]urea], the IC50 at TLR7 and at TLR8 was less than 75 nM in each case.
As for `C[C@H]1C[C@@H](NC(=O)[C@H]2CCCN2)CN(c2ccc(C(F)(F)F)c3ncccc23)C1` [Example 177, (R)-Pyrrolidine-2-carboxylic acid [(3R,5S)-5-methyl-1-(8-trifluoromethyl-quinolin-5-yl)-piperidin-3-yl]-amide], the values for the IC50 at TLR7 and at TLR8 were 75 to 150 nM and less than 75 nM, respectively.
`C[C@@H](O)CNC(=O)[C@H]1CN(c2ccc(C#N)c3nccnc23)C[C@@H](C(F)(F)F)O1` (single isomer, unassigned) [Example 278]: the IC50 at TLR7 and on TLR8 was more than 150 nM each time.
Take `CN1CC[C@](F)(CNC(=O)[C@@H]2CN(c3ccc(C#N)c4nccnc34)C[C@H](C(F)(F)F)O2)C1` (single isomer, unassigned) [Example 358]: the IC50 at TLR7 and at TLR8 was less than 75 nM throughout.
With `N#Cc1ncc(N2C[C@@H](C(=O)NCC3(F)CCNCC3)O[C@@H](C(F)(F)F)C2)c2cccnc12` (single isomer, unassigned) [Example 318], the IC50 at TLR7 and at TLR8 was more than 150 nM in each case.
Regarding `O=C(CC1(F)CCNCC1)N[C@@H]1C[C@H](C(F)(F)F)CN(c2ccc(C(F)(F)F)c3ncccc23)C1` [Example 117, 2-(4-fluoropiperidin-4-yl)-N-[(3R,5S)-5-(trifluoromethyl)-1-[8-(trifluoromethyl)quinolin-5-yl]piperidin-3-yl]acetamide], the IC50 on TLR7 and at TLR8 was less than 75 nM each time.
Consider `C[C@@H]1CN(c2ccc(C#N)c3nccnc23)C[C@H](C(=O)N2CC3(C2)CS(=O)(=O)C3)O1` [Example 251, 8-[(2R,6R)-2-(2,2-Dioxo-2lambda6-thia-6-aza-spiro[3.3]heptane-6-carbonyl)-6-methyl-morpholin-4-yl]-quinoxaline-5-carbonitrile], for which the IC50 on TLR7 and at TLR8 was more than 150 nM each time.
With `C[C@@H]1C[C@H](NC(=O)C[C@@H]2[C@@H]3C[C@H]2CN(C)C3)CN(c2ccc(C(F)(F)F)c3ncccc23)C1` [Example 107, N-((3S,5R)-5-methyl-1-(8-(trifluoromethyl)quinolin-5-yl)piperidin-3-yl)-2-((1R,5S,6r)-3-methyl-3-azabicyclo[3.1.1]heptan-6-yl)acetamide], the IC50 at TLR7 and at TLR8 was less than 75 nM throughout.
With `C[C@H]1C[C@@H](NCCN2CCNC2=O)CN(c2ccc(C(F)(F)F)c3ncccc23)C1` [Example 27, 1-{2-[(3R,5S)-5-Methyl-1-(8-trifluoromethyl-quinolin-5-yl)-piperidin-3-ylamino]-ethyl}-imidazolidin-2-one], the IC50 on TLR7 and on TLR8 was less than 75 nM each time.
Consider `C[C@H]1C[C@@H](NCCCS(N)(=O)=O)CN(c2ccc(C#N)c3nccnc23)C1` [Example 34, 3-[(3R,5S)-1-(8-Cyano-quinoxalin-5-yl)-5-methyl-piperidin-3-ylamino]-propane-1-sulfonic acid amide], for which the IC50 at TLR7 and on TLR8 was less than 75 nM in each case.
In the case of `C[C@H]1C[C@@H](NC(=O)C[C@H](O)CN(C)C)CN(c2ccc(C#N)c3nccnc23)C1` [Example 210, (3S)—N-[(3R,5S)-1-(8-cyanoquinoxalin-5-yl)-5-methylpiperidin-3-yl]-4-(dimethylamino)-3-hydroxybutanamide], the IC50 at TLR7 and at TLR8 was less than 75 nM each time.
Turning to `N#Cc1ccc(N2C[C@H](NC(=O)C3CCCCN3)C[C@H](C(F)(F)F)C2)c2cccnc12` (stereo partly drawn) [Example 183, Piperidine-2-carboxylic acid [(3R,5S)-1-(8-cyano-quinolin-5-yl)-5-trifluoromethyl-piperidin-3-yl]-amide], the IC50 on TLR7 and at TLR8 was 75 to 150 nM each time.
For `CN(C)CCNC(=O)N[C@@H]1C[C@H](C(F)(F)F)CN(c2ccc(C(F)(F)F)c3ncccc23)C1` [Example 144, 3-[2-(dimethylamino)ethyl]-1-[(3R,5S)-5-(trifluoromethyl)-1-[8-(trifluoromethyl)quinolin-5-yl]piperidin-3-yl]urea], the IC50 at TLR7 is 75 to 150 nM; at TLR8, less than 75 nM.
For the compound `C[C@H]1C[C@@H](NCC2(O)CCOCC2)CN(c2ccc(C(F)(F)F)c3ncccc23)C1` [Example 50, 4-{[(3R,5S)-5-Methyl-1-(8-trifluoromethyl-quinolin-5-yl)-piperidin-3-ylamino]-methyl}-tetrahydro-pyran-4-ol], the IC50 at TLR7 and at TLR8 was less than 75 nM throughout.
Turning to `C[C@H]1C[C@@H](OCCN2CCN(C)CC2)CN(c2ccc(C(F)(F)F)c3ncccc23)C1` (racemic) [Example 2, 5-[cis-3-methyl-5-[2-(4-methylpiperazin-1-yl)ethoxy]piperidin-1-yl]-8-(trifluoromethyl)quinoline], the IC50 on TLR7 and at TLR8 was less than 75 nM in each case.
